{"source": "patent US7208572B2", "about": "“Leptin-related peptides” (Albany Medical College, priority 1998, dated 2007)", "key": {"OB-Ra": {"target": "T1, OB-Ra (Mus musculus, UniProt P48356)", "T1 construct": "expressed in transfected cells; host or cells: COS-7", "T1 sequence (P48356 22-894 isoform P48356-2 limits assumed)": "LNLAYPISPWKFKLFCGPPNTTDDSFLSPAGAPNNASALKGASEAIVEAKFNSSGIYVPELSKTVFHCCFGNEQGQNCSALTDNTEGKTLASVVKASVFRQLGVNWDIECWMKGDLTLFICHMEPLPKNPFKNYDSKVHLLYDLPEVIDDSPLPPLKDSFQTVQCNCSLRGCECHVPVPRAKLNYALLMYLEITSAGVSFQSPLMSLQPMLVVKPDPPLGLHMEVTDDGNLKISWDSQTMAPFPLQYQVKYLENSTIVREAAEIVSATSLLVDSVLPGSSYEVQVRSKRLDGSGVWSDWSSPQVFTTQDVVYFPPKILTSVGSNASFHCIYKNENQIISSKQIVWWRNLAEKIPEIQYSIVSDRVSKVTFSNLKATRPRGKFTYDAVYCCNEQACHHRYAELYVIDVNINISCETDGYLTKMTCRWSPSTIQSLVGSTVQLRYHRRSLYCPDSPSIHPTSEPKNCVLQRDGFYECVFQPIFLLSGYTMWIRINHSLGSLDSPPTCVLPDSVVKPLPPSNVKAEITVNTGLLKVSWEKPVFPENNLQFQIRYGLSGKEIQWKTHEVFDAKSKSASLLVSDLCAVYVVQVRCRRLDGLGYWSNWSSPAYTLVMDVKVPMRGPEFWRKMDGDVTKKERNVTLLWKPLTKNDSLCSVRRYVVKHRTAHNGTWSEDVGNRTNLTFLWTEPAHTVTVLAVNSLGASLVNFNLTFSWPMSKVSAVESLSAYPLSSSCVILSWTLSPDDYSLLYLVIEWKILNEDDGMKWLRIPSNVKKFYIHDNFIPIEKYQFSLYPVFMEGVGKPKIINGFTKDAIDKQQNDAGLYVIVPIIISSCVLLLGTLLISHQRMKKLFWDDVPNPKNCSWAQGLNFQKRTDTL", "assay": "Inhibition of AP-OB fusion protein binding by COS-7 cells transfected with OB receptor", "settings": "1 nM human AP-OB, peptide up to 300 μM", "description": "Initial experiments to determine the mechanism of action of LEP(116–130) utilized two highly sensitive in vitro bioassays routinely used to assess leptin binding and receptor activation (see e.g., White, et al., 1997. Proc. Natl. Acad. Sci. U.S.A. 94: 10657–10662). An alkaline phosphatase (“AP”)-leptin (“OB”) fusion protein (“AP-OB”) was used to measure inhibition of leptin binding in the absence or presence of recombinant mouse leptin (positive control) or peptide, by COS-7 cells transfected with the long (signaling) form of the mouse OB receptor (“OB-RL”). Signal transduction assays were done in GT1–7 cells cotransfected with AP reporter and OB-RL constructs. Secreted alkaline phosphatase (“SEAP”) activity in response to stimulation with mouse leptin or peptide was measured by chemiluminescence.\nTwo days after transfection, COS-7 cells were incubated with 1 nm human AP-OB fusion protein and bound AP activity was determined by chemiluminescence using the Great EscApe alkaline phosphatase detection kit as described by the manufacturer (CLON-TECH).\nCOS-7 cells were transfected with expression vector for OB-Ra. Two days after transfection, the cells were incubated with 1 nM human AB-OB fusion protein in the absence or presence of 30 nM mouse leptin, 300 μM LEP(116–130) or LEP(146–160). Bound AP activity was determined as has been described. See., e.g., Kamohara et al., 1997 Nature 389: 374–377."}, "[1]": {"assay": "Epitope mapping: body weight and food intake in female C57BL/6J ob/ob mice, 7 daily ip injections", "format": "in vivo, mouse", "settings": "1 mg/day ip, 7 days", "method": "Animal procedures. Feeding and weighing schedules, as well as peptide administration protocols, are as described in EXAMPLE 8, supra.\nStatistical analysis. Changes in body weight and differences in food intake between peptide-treated and vehicle-injected control mice were analyzed by analysis of variance (ANOVA) and considered significant when P<0.05.\nFemale ob/ob mice (n=6 per group) were given a single ip injection of 0.2 ml of vehicle (PBS, pH 7.2) or leptin-related synthetic peptide amide in 0.2 ml PBS for 7 consecutive days. Daily changes in body weight compared to pretreatment weights in both vehicle-injected control and peptide-treated mice are shown in FIG. 4. […] There was no evidence of weight loss in response to peptide treatment."}, "[2]": {"assay": "28-day ip study of body weight and food intake in female C57BL/6J ob/ob mice", "format": "in vivo, mouse", "settings": "1 mg per day ip, 28 days", "description": "In order to examine this possibility, six overlapping peptide amides, which corresponded to amino acid residues 106 to 167 of mouse leptin, were synthesized and their effects on body weight and food intake in female C57BL/6J ob/ob mice were subsequently assessed."}, "[3]": {"settings": "db/db mice, 1 mg/day ip", "protocol": "Peptide administration: LEP(116–130) and LEP(146–160) peptide amides were dissolved in sterile phosphate buffered saline (PBS, pH 7.2) and administered daily for 7 days between 1500 and 1600 h in a single 1 mg/0.2 ml ip injection. Control mice received 0.2 ml PBS (ip) only.\nFeeding and weighing schedule: On day one of the study, and on each day thereafter, 200 g of pelleted rodent diet (Prolab Rat, Mouse, Hamster 3000, St.Louis Mo.; 22% crude protein, 5% crude fat, 5% fiber, 6% ash, 2.5% additional minerals) was added to the hopper on each side of the cages between 0900 and 1100 h. Food remaining after 24 h was weighed to the nearest 0.1 g, and the average amount of food consumed per mouse was calculated (mean±SEM, n=6). The mice were allowed water ad libitum throughout the study, and were weighed once daily between 0900 and 1100 h.\nEach value represents the mean±SEM change in body weight or food intake for a group of six mice."}}, "note": "Like-named read-outs stand apart in the source and are kept apart here."}
{"sequence": "A L S R L Q G S L Q D I L Q Q (ALSRLQGSLQDILQQ) [LEP(146–160)]", "values": [{"measurement": "Inhibition of AP-OB fusion protein binding", "setting": "OB-Ra", "value": "neither LEP(116–130) nor LEP(146–160), at 300 μM, were able to inhibit AP-OB binding"}, {"measurement": "Inhibition of AP-OB fusion protein binding", "setting": "OB-Ra; listed as LEP(145–160)", "value": "unable to inhibit AP-OB binding"}, {"measurement": "Cumulative food intake", "setting": "[1]", "value": "40.5 ± 1.0", "unit": "gm/mouse"}, {"measurement": "Percent heavier (+) or lighter (−) than initial weight", "setting": "[1]", "value": "+28.0%"}, {"measurement": "Weight gain (+) or loss (−)", "setting": "[1]", "value": "+6.8 g"}, {"measurement": "Weight gain and food intake vs vehicle", "setting": "[2]", "value": "continued to consume food and gain weight at a rate comparable to vehicle-injected control mice"}, {"measurement": "Weight after 7 days", "setting": "[3]", "value": "36.2 ± 1.4", "unit": "g"}, {"measurement": "Cumulative food intake", "setting": "[3]; 7 days", "value": "53.5 ± 0.3", "unit": "gm/mouse"}, {"measurement": "Effect on body weight gain and food intake", "setting": "[3]; 7 days", "value": "had no effect on either body weight"}, {"measurement": "Percent increase (body weight)", "setting": "[3]; 7 days", "value": "+18.3%"}, {"measurement": "Weight increase", "setting": "[3]; 7 days", "value": "+5.6 g"}]}
